Here are results for six substances from US5968526A, “T cell epitopes of the major allergens from Dermatophagoides (house dust mite)” (Immulogic Pharamaceutical Corporation, priority 1995, dated 1999).

Assay [1] has as its system T cell cultures reactive with Der p I from house dust mite-allergic subjects. Kind of assay: secondary T cell proliferation assay, Group I (Der p I) overlapping and candidate/unique peptides; percent of T cell reactivity. To be noted: patient 1733; for T cell stimulation index (S.I.): highest S.I. ≥2.0 recorded. It counts as cell-based, human. An excerpt:
To determine whether a peptide (candidate peptide) or a combination of candidate peptides are likely to comprise a sufficient percentage of the T cell reactivity of house dust mite protein allergens, to induce T cell nonresponsiveness in a substantial percentage of a population of individuals sensitive to house dust mite allergen, an algorithm can be used. In accordance with one such algorithm, a set of overlapping peptides is produced by systematically dividing the protein allergen(s) of interest into al least two overlapping peptide regions of desired lengths (e.g., of about 12-30 amino acid residues in length, preferably not longer than about 25 amino acid residues in length with about 5-15 amino acid residues of overlap). This division into peptide regions can be arbitrary, can be made according to an algorithm, or can be wholly or partially based on regions of house dust mite Group I and/or Group II protein allergens known to comprise at least one T cell epitope. Preferably, at least 50% of the entire house dust mite protein allergen sequence and more preferably, the entire house dust mite protein allergen sequence is divided into two or more peptides. A human T cell stimulation index is determined for each of the peptides in an in vitro T cell proliferation assay as described herein for each individual tested in a population of individuals sensitive to the protein antigen. For example both WO93/08279 and WO94/24281 disclose T cell studies with overlapping peptides derived from Der p I, Der p II, Der f I and Der f II. A candidate peptide or combination of candidate peptides is selected based, at least in part, on the mean human T cell stimulation index of the candidate peptide in the set of peptides tested and the positivity index of the candidate peptide in the set of peptides tested (see, FIGS. 3 and 4). The human T cell stimulation index for the candidate peptide(s) is summed. For each individual, the human T cell stimulation index for the candidate peptide(s) is divided by the sum of the human T cells stimulation indices of the remaining peptides in the set of peptides tested to determine a percent of T cell reactivity as shown below:
Alternatively, the presence of T cell epitopes in the candidate peptide dependent on amino acids residues in an overlapping peptide located at either the N-terminus or C-terminus of the candidate peptide in the amino acid sequence of the protein antigen, but which epitopes are not present in the candidate peptide can be considered in calculating the percent of T cell reactivity in the candidate peptide by use of the following formula: [formula]
In this formula, "NT flanking peptide" refers to a peptide which comprises amino acid residues which overlap with amino acid residues located at the N-terminus of the candidate peptide in the amino acid sequence of the protein antigen from which the peptide is derived; "CT flanking peptide" refers to a peptide which comprises amino acid residues which overlap with amino acid residues located a the C-terminus of the candidate peptide in the amino acid sequence of the protein antigen from which the peptide is derived. In this calculation stimulation indices for the candidate peptide, the N-terminal flanking peptide and the C-terminal flanking peptide are added and divided by the sum total of the stimulation indices for the entire set of overlapping peptides obtain a percent of T cell reactivity for the candidate peptide. If a combination of two or more candidate peptides is selected each of which contains amino acid residues which overlap, this calculation cannot be used to determine a percent of T cell reactivity for each candidate peptide separately. However, a total percent of T cell reactivity for the combination of candidate peptides can be obtained. In this situation, the stimulation indices for all of the candidate peptides which overlap is included in the calculation. […]

Assay [2] relates to T cell lines primed in vitro with Der p I. Kind of assay: T cell proliferation with fine map and modified Group I peptides (Example XIV). It counts as cell-based, human. Conditions: for positive T cell responses, modified peptides: 18 T cell lines, affinity purified Der p I primed, FIG. 31a. Summed up:
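Bulk T cell lines primed with 30 μg/ml native Der p I or Der p II for 5-6 days, rested with IL-2/IL-4, then restimulated 3 days with peptides plus irradiated autologous EBV-B cells or PBMs. Proliferation by 16-20 h [3H]thymidine uptake; stimulation index = peptide CPM / medium CPM, averaged over responding patients.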

As for “DP I-21.2: Der p I peptide; unique peptide (SINGNAPAEIDLRQMRTVTPIRMQ)”, the “T cell stimulation index (S.I.)” value in assay [1] was found to be 3.6. Moreover, in assay [2] (FIGS. 31a-b), the “T cell response, Group I peptides” value is “positive response”; the “positivity index, comparison” value was “higher positivity index then either of the overlapping peptides, DP I-1 and DP I-2”.
Turning to “DP I-3: Der p I peptide (TVTPIRMQGGCGSCWAFSGVAATESAYLA)”, the “T cell stimulation index (S.I.)” value in assay [1] is listed as 3.9.
As to “DP I-1: Der p I peptide, amino acid residues 1-20 (TNACSINGNAPAEIDLRQMR)”, the “T cell response, Group I peptides” value in assay [2] (FIGS. 31a-b) is listed as “positive response”.
With “DP I-23.31: modified Der p I peptide; unique peptide (DEEGVVQESYYRYVAREQSCRRPNAE)”, the “T cell stimulation index (S.I.)” value in assay [1] was found to be 5.7. Also, the “positive T cell responses, modified peptides” value in assay [2] is “all eighteen T cell lines responded positively”. The “T cell response, Group I peptides” value in assay [2] (FIGS. 31a-b) is listed as “positive T cell studies”.
Take “DP I-26.6: modified Der p I peptide; unique peptide (DEGIKDLDAFRHYDGRTIIQRDNGYE)”: the “T cell stimulation index (S.I.)” value in assay [1] worked out at 5.0. Further, the “estimated range of T cell reactivity (% reactivity of peptide)” value in assay [1] (of total reactivity of the Der p I protein) is 12.3%-24. In addition, in assay [2], the “positive T cell responses, modified peptides” value is on record as “all eighteen T cell lines responded positively”. Besides, the “T cell response, Group I peptides” value in assay [2] (FIGS. 31a-b) was “positive T cell studies”.
For “DF I-22.2: VAATESAYLAYRNTSLDLSEQELVD, amino acid residues 40-64 of Der f I”, in assay [2] (FIGS. 31a-b), the “T cell response, Group I peptides” value is on record as “positive responses”.
